Assay results taken from patent publication US20260184690A1, “Substituted Heterocyclic Compounds” (Bristol-Myers Squibb Company, priority 2022, published 2026).
Where two headings read alike, the source gives them in different places.

What was measured:
[1] = tested on: IFNα-induced pSTAT5 in human whole blood (CD3 positive population); test: IFNα-induced STAT phosphorylation in human whole blood; type: cell-based; settings: 1 h compound incubation, 1000 U/mL IFNα A/D for 15 min, CD3+ gate, read-out: Human Whole blood IFNa pSTAT5 IC50
Procedure: After an hour long incubation with compound, human whole blood (drawn with ACD-A as anticoagulant) was stimulated with 1000 U/mL recombinant human IFNα A/D (R&D Systems 11200-2) for 15 min. The stimulation was stopped by adding Fix/Lyse buffer (BD 558049). Cells were stained with a CD3 FITC antibody (BD 555916), washed, and permeabilized on ice using Perm III buffer (BD 558050). Cells were then stained with an Alexa-Fluor 647 pSTAT5 (pY694) antibody (BD 612599) for 60 min prior to analysis on the iQue Plus. The amount of pSTAT5 expression was quantitated by median fluorescence intensity after gating on the CD3 positive population.

Caco-2 cells [2] = test: Bidirectional permeability assay in Caco-2 cells; settings: 3 μM, pH 7.4, 0.5% BSA, 2 hours at 37° C.; for Caco-2 AB: apical-to-basolateral Pc
Caco-2 cells [3] = settings: human, Caco-2, 2 h, 3 μM, pH 7.4
in vitro = settings: human, Caco-2, pH 7.4

CNC(=O)c1cnc(N2CCN(C(C)C)C2=O)cc1Nc1nccc(-c2cnn(C)n2)c1OC [Example 2, 4-{[3-methoxy-4-(2-methyl-2H-1,2,3-triazol-4-yl)pyridin-2-yl]amino}-N-(^2H3)methyl-6-[2-oxo-3-(propan-2-yl)imidazolidin-1-yl]pyridine-3-carboxamide] gave an IC50 [1] of 26 nM.

For [2H]C([2H])([2H])NC(=O)c1cnc(N2CCN(C(C)C)C2=O)cc1Nc1nccc(-c2cnn(C)n2)c1OC [Example 2, 4-{[3-methoxy-4-(2-methyl-2H-1,2,3-triazol-4-yl)pyridin-2-yl]amino}-N-(^2H3)methyl-6-[2-oxo-3-(propan-2-yl)imidazolidin-1-yl]pyridine-3-carboxamide], the Caco-2 efflux ratio (Caco-2 cells [2]) was 1.4 and the “Caco-2 AB” value (Caco-2 cells [2]) was 233 nm/s.

In the case of CNC(=O)c1cnc(N2CCN(C(C)C)C2=O)cc1Nc1cccc(-c2cnn(C)n2)c1OC [Example 3, 4-{[2-methoxy-3-(2-methyl-2H-1,2,3-triazol-4-yl)phenyl]amino}-N-(^2H3)methyl-6-[2-oxo-3-(propan-2-yl)imidazolidin-1-yl]pyridine-3-carboxamide], the IC50 [1] is reported as 77 nM.

In the case of [2H]C([2H])([2H])NC(=O)c1cnc(N2CCN(C(C)C)C2=O)cc1Nc1cccc(-c2cnn(C)n2)c1OC [Example 3, 4-{[2-methoxy-3-(2-methyl-2H-1,2,3-triazol-4-yl)phenyl]amino}-N-(^2H3)methyl-6-[2-oxo-3-(propan-2-yl)imidazolidin-1-yl]pyridine-3-carboxamide], the Caco-2 efflux ratio (Caco-2 cells [2]) is reported as 0.7 and the “Caco-2 AB” value (Caco-2 cells [2]) is reported as 287 nm/s.

Work on CNC(=O)c1nnc(N2CCN(C3CC3)C2=O)cc1Nc1nccc(-c2cnn(C)n2)c1OC [Example 4, 6-(3-cyclopropyl-2-oxoimidazolidin-1-yl)-4-{[3-methoxy-4-(2-methyl-2H-1,2,3-triazol-4-yl)pyridin-2-yl]amino}-N-(^2H3)methylpyridazine-3-carboxamide] yielded an IC50 [1] of 26 nM.

With [2H]C([2H])([2H])NC(=O)c1nnc(N2CCN(C3CC3)C2=O)cc1Nc1nccc(-c2cnn(C)n2)c1OC [Example 4, 6-(3-cyclopropyl-2-oxoimidazolidin-1-yl)-4-{[3-methoxy-4-(2-methyl-2H-1,2,3-triazol-4-yl)pyridin-2-yl]amino}-N-(^2H3)methylpyridazine-3-carboxamide] the “Caco-2 AB” value (Caco-2 cells [3]) was 576 nm/s.

Work on CNC(=O)c1nnc(N2CCN(C3CC3)C2=O)cc1Nc1cccc(-c2cnn(C)n2)c1OC [Example 5, 6-(3-cyclopropyl-2-oxoimidazolidin-1-yl)-4-{[2-methoxy-3-(2-methyl-2H-1,2,3-triazol-4-yl)phenyl]amino}-N-(^2H3)methylpyridazine-3-carboxamide] yielded an IC50 [1] of 95 nM.

For [2H]C([2H])([2H])NC(=O)c1nnc(N2CCN(C3CC3)C2=O)cc1Nc1cccc(-c2cnn(C)n2)c1OC [Example 5, 6-(3-cyclopropyl-2-oxoimidazolidin-1-yl)-4-{[2-methoxy-3-(2-methyl-2H-1,2,3-triazol-4-yl)phenyl]amino}-N-(^2H3)methylpyridazine-3-carboxamide], the “Caco-2 AB” value (Caco-2 cells [3]) was 361 nm/s.

CNC(=O)c1cnc(N2CCN(C(F)(F)F)C2=O)cc1Nc1cccc(-c2cnn(C)n2)c1OC [Example 6, 4-{[2-methoxy-3-(2-methyl-2H-1,2,3-triazol-4-yl)phenyl]amino}-N-(^2H3)methyl-6-[2-oxo-3-(trifluoromethyl)imidazolidin-1-yl]pyridine-3-carboxamide] gave an IC50 [1] of 800 nM.

In the case of [2H]C([2H])([2H])NC(=O)c1cnc(N2CCN(C(F)(F)F)C2=O)cc1Nc1cccc(-c2cnn(C)n2)c1OC [Example 6, 4-{[2-methoxy-3-(2-methyl-2H-1,2,3-triazol-4-yl)phenyl]amino}-N-(^2H3)methyl-6-[2-oxo-3-(trifluoromethyl)imidazolidin-1-yl]pyridine-3-carboxamide], the Caco-2 efflux ratio (Caco-2 cells [2]) is reported as 0.6 and the “Caco-2 AB” value (Caco-2 cells [2]) is reported as 118 nm/s.

With CNC(=O)c1nnc(N2CCN(C3CCC3)C2=O)cc1Nc1nccc(-c2cnn(C)n2)c1OC [Example 7, 6-(3-cyclobutyl-2-oxoimidazolidin-1-yl)-4-{[3-methoxy-4-(2-methyl-2H-1,2,3-triazol-4-yl)pyridin-2-yl]amino}-N-(^2H3)methylpyridazine-3-carboxamide] the IC50 [1] was 47 nM.

In the case of [2H]C([2H])([2H])NC(=O)c1nnc(N2CCN(C3CCC3)C2=O)cc1Nc1nccc(-c2cnn(C)n2)c1OC [Example 7, 6-(3-cyclobutyl-2-oxoimidazolidin-1-yl)-4-{[3-methoxy-4-(2-methyl-2H-1,2,3-triazol-4-yl)pyridin-2-yl]amino}-N-(^2H3)methylpyridazine-3-carboxamide], the “Caco-2 AB” value (Caco-2 cells [3]) is reported as 139 nm/s.

Work on [2H]C([2H])([2H])NC(=O)c1nnc(N2CCN(C(C)C)C2=O)cc1Nc1nc(C)cc(-c2cnn(C)n2)c1OC [Example 8, 6-(3-isopropyl-2-oxoimidazolidin-1-yl)-4-((3-methoxy-6-methyl-4-(2-methyl-2H-1,2,3-triazol-4-yl)pyridin-2-yl)amino)-N-(methyl-d3)pyridazine-3-carboxamide] yielded an IC50 [1] of 383 nM, a Papp A→B at 2 h, 3 μM (in vitro) of 15.4 ×10⁻⁶ cm/s and an efflux ratio at 2 h, 3 μM (in vitro) of 0.3.

[2H]C([2H])([2H])NC(=O)c1nnc(N2CCN(C3CC3)C2=O)cc1Nc1nc(C)cc(-c2cnn(C)n2)c1OC [Example 9, 6-(3-cyclopropyl-2-oxoimidazolidin-1-yl)-4-((3-methoxy-6-methyl-4-(2-methyl-2H-1,2,3-triazol-4-yl)pyridin-2-yl)amino)-N-(methyl-d3)pyridazine-3-carboxamide] gave an IC50 [1] of 141 nM, a Papp A→B at 2 h, 3 μM (in vitro) of 13.7 ×10⁻⁶ cm/s and an efflux ratio at 2 h, 3 μM (in vitro) of 0.2.
